Laboratory results taken from US7786042B2, “Fluridone as an anti-inflammatory agent” (Universita' Degli Studi Di Genova, priority 2005, dated 2010).

Columns and labels:
whole blood cells = test: LPS-induced histamine release from blood cells; format: cell-based, human; conditions: pre-incubation with 50 μM fluridone
Protocol: Whole blood was pre-incubated for 2 hours at 25° C. in the absence (control) or in the presence of 50 μM fluridone. Then, 100 ng/ml of lipopolysaccharide (LPS) was added to the blood at 37° C. for the time indicated. The histamine concentration in plasma was measured immunoenzymatically with a commercially available kit (IBL-Hamburg, Germany). The results are the mean ±SD from 3 experiments.

human granulocytes [1] = test: Intracellular cADPR content in granulocytes (enzymatic cycling assay); format: cell-based; conditions: ABA 20 μM
Protocol: Panel A. GDP-ribosyl cyclase activity has been measured in granulocytes in the presence of increasing ABA concentrations, added together with the cyclase substrate NGD^+. The results are expressed as cyclase activity relative to control cells, incubated in the absence of ABA (mean ±SD from 5 determinations). Panel B. The intracellular concentration of cADPR was measured by enzymatic cycling assay (Materials and Methods) on granulcoytes incubated with 20 μM ABA for the periods of time indicated. The results are expressed as [cADPR]i relative to control cells, incubated without ABA (n=2).
The assays to determine the intracellular cADPR concentration ([cADPR]i) in granulocytes are known to the expert in the field. Granulocytes (40×10^6/ml in RPMI 1640) were incubated in the presence of 20 μM ABA and at various times 500 μl-aliquots were withdrawn and centrifuged (5,000×g for 15 s) to recover the cell pellets. Determination of the [cADPR]i was performed on perchloric acid cell extracts by an enzymatic cycling assay, as described in (Graeff, Biochem. J. 2002).

human granulocytes [2] = test: Intracellular calcium [Ca2+]i in granulocytes; format: cell-based; conditions: 10 min after addition of 10 μM ABA; basal value 50±2 nM; n=4
Protocol: Granlocytes were isolated by density gradient centrifugation from the peripheral blood of healthy donors, after informed consent. Contaminating erythrocytes were removed by hypotonic lysis. […] The increase of [cADPR]i in turn induces a progressive rise of [Ca^2+]i, from a basal value of 50±2 nM to 170±25 nM after 10 min from the addition of 10 μM ABA (n=4). […] The increase of the [Ca^2+]i induced by ABA in granulocytes is in turn responsible for activation of several functional activities typical of these cells. The functional effects induced by ABA (at concentrations ranging between 0.2 and 20 μM) in granulocytes include stimulation of the production of reactive oxygen species (ROS), measured through the cytochrome c […] (FIG. 2A), and of nitric oxide (NO), measured as accumulation of nitrite, the end-product of NO […] (FIG. 2B).

SMILES | histamine release by LPS-stimulated (unfractionated) blood cells (whole blood cells) | intracellular cADPR concentration ([cADPR]i) (human granulocytes [1]) | [Ca2+]i (human granulocytes [2])
Cn1cc(-c2ccccc2)c(=O)c(-c2cccc(C(F)(F)F)c2)c1 [Fluridone, 1-methyl-3-phenyl-5-(α,α,α-trifluoro-m-tolyl)-4-pyridone] | completely inhibits |  | 
CC1=CC(=O)CC(C)(C)[C@@]1(O)/C=C/C(C)=C\C(=O)O (racemic) [ABA, (±)-cis, trans ABA] |  | increase | 170 ± 25 nM
